Reference: patent US7582602B2, “Hirulog-like peptide and gene therapy” (priority 2000, dated 2009)
Entries after “also recorded” stand apart in the source; their conditions may differ. Values belong to the molecule of their own block, whether it stands above or below them.

What was measured:
[1] = Activated partial thromboplastin time (aPTT) in rats; format: in vivo; details: for aPTT (second): mean±SD, n=4
Procedure: Quantitative thrombin time (QTT) and activated partial thromboplastin time (aPTT): Plasma levels of hirulog-1 were estimated using QTT as previously described (Safian R D et al, 1990). Synthesized hirulog-1 (>90% of purity) was used as standard. The levels of aPTT in plasma were analyzed using a MLA 1000C Coagamate XM system in Haematology Laboratory, Health Sciences Centre, Winnipeg.
(§1) The levels of aPTT in plasma were analyzed using MLA 1000C Coagamate XM system in Haematology Laboratory, Health Sciences Centre, Winnipeg. For the evaluation of bleeding time, 1 mm of tail tip was removed using a razor blade. Resultant wound was gently blotted with filter paper immediately after the cut and each 30-second thereafter until bleeding stopped. Periods between cutting and no blood blotted onto filter paper were defined as bleeding time (Ishiwata S et al, 1997, 20).

[2] = Tail bleeding time in rats; format: in vivo; details: for tail bleeding time during treatment versus control or basal levels: i.v. infusion
Procedure: as §1

baboon aortic SMC = assay: Thrombin-induced 3H-thymidine incorporation assay; format: cell-based; details: thrombin 10 U/ml
Procedure: Baboon aortic SMCs (seed cells provided by Dr. A. W. Clowes, University of Washington, Seattle) were grown as previously described (Ishiwata S et al, 1999) and seeded in 12-well plates to sub-confluence. Sub-confluent cells were incubated with serum-free medium for 48 hours. Quiescent SMCs were stimulated with medium containing 1% fetal calf serum and 10 U/ml of thrombin in the absence and presence of HLP for 4 hours. The incubation was continued following the replacement of fresh medium supplemented with 10% serum in the absence of thrombin or its inhibitor for 14 hours. Finally, SMCs were incubated with 0.1 μCi/ml of 3H-thymidine (NEN, Boston, Mass.) in medium containing 10% of serum for 6 hours. At the end of the incubation, the cells were thoroughly washed with PBS then 5% ice-cold trichloroacetic acid, and harvested in 0.25 N NaOH (Safian R D et al, 1990). Radioactivity in aliquots of cell lysate was analyzed in scintillation counter. 3H-Thymidine incorporation was assessed by radioactivity in cell lysates following adjustment with cellular proteins in each well.

[3] = Haemorrhage, toxicity, liver and kidney function in rats; format: in vivo
[4] = Induction of antibodies in rabbits; details: rabbit, in vivo
Procedure: Relationship between HLP concentrations and vascular response. The relationship between plasma concentrations and the anti-restenosis effect of HLP is analysed. Polyclonal antibodies against HLP-KLH conjugate were raised in rabbits by the applicants group. The antibodies specifically recognize HLP in plasma proteins using Western blotting analysis. A competitive immunoassay was developed to measure plasma levels of HLP. Relationship between the effect of HLP on restenosis and its blood concentrations is analysed, which helps evaluate the efficacy of HLP and the design of a proper regimen for HLP treatment to prevent restenosis.
Effect of HLP on immune reactions. Since HLP is a peptide, it potentially induces immune reactions. HLP is a weak antigen. […] The possibility of HLP induces immune reactions in rabbits has not been excluded. Blood is withdrawn four weeks or six months after angioplasty and treatment with HLP, its analogues or saline, and determine the levels of serum C-reactive protein (Clinical Chemistry). Antibodies against HLP in blood are detected by immunodiffusion. Allergic reaction to HLP is monitored during and after the treatment.

aPTT in rabbits = format: in vivo; details: HLP treated rabbits
Procedure: (§2) Influence of HLP on coagulation and haemorrhage. The levels of aPTT and microvascular bleeding time is determined in atherosclerotic rabbits receiving HLP, heparin, hirulog-1 or saline. The effects of optimized HLP treatment on coagulation and haemorrhage is also be examined in a group of uninjured rabbits on regular diet (n=10). The levels of aPTT is determined in blood withdrawn at 15 minutes after the start of the infusions using MLA Coagamate XM system in Haematology Laboratory. Microvascular bleeding time is determined by bleeding from a cut on ear at 1 minutes after the initiation of infusion as previously described (Blajchman et al, 1979). Incidence of bleeding complications in rabbits with various treatments is recorded. Autopsy is applied to every animal, including unexpected death, to examine the sign of haemorrhage in various organs and tissues.
Restenosis is responsible for the 30-40% long term failure rate following coronary revascularization. Thrombin inhibitors have been considered as one type of potential drug for the prevention of restenosis. […] The experiment was designed to examine the effect of HLP on restenosis of carotid arteries in atherosclerostic rabbits. Right carotid arteries of male New Zealand rabbits were subjected to air dessication. […]

[5] = Bleeding complications and side effects in rabbits; format: in vivo; details: HLP 0.8 mg/kg/h for four hours
Procedure: as §2
Impact of HLP on liver, kidney and myeloid functions. Peripheral blood is withdrawn before sacrifice from ear vein of normal or atherosclerotic rabbits with and without treatments for analysing complete blood counts, serum albumin, alanine transaminase and blood urea nitrogen (analysed in Dept of Clinical Chemistry) to determine the influence of HLP on liver, kidney and myeloid functions. HLP concentrations in blood is analysed to examine the relationship between blood concentrations and possible toxic effects of HLP. […]

α-thrombin = target: T1, α-thrombin (Homo sapiens, UniProt P00734); assay: Inhibition of enzymatic activity of thrombin (spectrozyme substrate); format: biochemical; details: spectrozyme as substrate, relative to hirulog-1
T1 construct: using α-thrombin and spectrozyme (American Diagnostica Inc., Greenwich, Conn.) as a substrate for thrombin
Excerpt: HLP keeps the sequence of the active sites of hirulog-1. The amino-terminal tail of HLP contains a region which is homology to a distal portion of the extracellular domain of the thrombin receptor. This region of HLP is structurally distinct from hirulog-19-20 (or HLP20-31) which aims the anion binding exosite of thrombin (Carmeliet P et al, 1997). HLP provides double-site of inhibition on the binding of thrombin to the thrombin receptor, which can more effectively reduce the activation of the […] and the cellular effects of thrombin. In addition, the amino-terminal sequence of HLP can affect the interaction of the inhibitor with the active site of thrombin in a manner different from hirulog-1. This structural difference between HLP and hirulog-1 on their amino terminal can partially explain the lower inhibition of HLP on coagulation. The amino terminal of HLP can be slowly cleaved by thrombin after the formation of complex with thrombin as hirulog-1 (Buchanan M R et al, 1999), which prevents the complete consumption of thrombin.

[6] = tested on: hirulog-like peptide (HLP)
[7] = human, in vivo; cited from earlier work
[8] = balloon injured rats, heparin 50 U/kg/h, hirulog-1 1 mg/kg/h, HLP 1.6 mg/kg/h [HLP(1.6)], 5 minutes after start of infusion
[9] = tail, heparin 50 U/kg/h, hirulog-1 1 mg/kg/h, HLP 1.6 mg/kg/h [HLP(1.6)], 10 minutes after initiation of infusion, mean±SD, n=4
[10] = rats, 6 months after HLP 1.6 mg/kg/h for 4 hours
[11] = rats, 6 months after HLP treatment

Sequence of hirulog-like peptide (HLP) (chain, as listed by the source): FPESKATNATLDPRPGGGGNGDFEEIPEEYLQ

Molecule: CC[C@H](C)[C@H](NC(=O)[C@H](CCC(=O)O)NC(=O)[C@H](CCC(=O)O)NC(=O)[C@H](Cc1ccccc1)NC(=O)[C@H](CC(=O)O)NC(=O)CNC(=O)[C@H](CC(N)=O)NC(=O)CNC(=O)CNC(=O)CNC(=O)CNC(=O)[C@@H]1CCCN1C(=O)[C@H](CCCNC(=N)N)NC(=O)[C@@H]1CCCN1C(=O)[C@H](N)Cc1ccccc1)C(=O)N1CCC[C@H]1C(=O)N[C@@H](CCC(=O)O)C(=O)N[C@@H](CCC(=O)O)C(=O)N[C@@H](Cc1ccc(O)cc1)C(=O)N[C@@H](CC(C)C)C(=O)O [Hirulog-1, reference compound]
- aPTT raised over basal levels ([1]; 1 minute after injection of 1 mg/kg, uninjured and balloon injured rats): 3- to 4 fold
- aPTT (second) [1, 8]: 52.38 ± 2.84**+ second
- prolongation of aPTT during infusion ([1]; heparin 50 U/kg/h, hirulog-1 1 mg/kg/h, 5 minutes after start of infusion): 2- to 3 fold
- aPTT / coagulation activity during treatment versus control or basal levels ([1]; rats, i.v. infusion): significantly elongated
- time after treatment beyond which aPTT was normalized ([1]; single injection of 1 mg/kg): > 30 min
- aPTT versus basal levels ([1]; within 15 minutes after single injection of 1 mg/kg): higher than corresponding basal levels
- tail bleeding time during treatment versus control or basal levels ([2]; rats): significantly prolonged; also recorded: significantly elongated
- Bleeding time [2, 9]: 21.88 ± 1.55 min

Molecule: Thrombin
- increase of 3H-thymidine incorporation (baboon aortic SMC): 43%

Molecule: CC[C@H](C)[C@H](NC(=O)[C@H](CCC(=O)O)NC(=O)[C@H](CCC(=O)O)NC(=O)[C@H](Cc1ccccc1)NC(=O)[C@H](CC(=O)O)NC(=O)CNC(=O)[C@H](CC(N)=O)NC(=O)CNC(=O)CNC(=O)CNC(=O)CNC(=O)[C@@H]1CCCN1C(=O)[C@H](CCCNC(=N)N)NC(=O)[C@@H]1CCCN1C(=O)[C@H](CC(=O)O)NC(=O)[C@H](CC(C)C)NC(=O)[C@@H](NC(=O)[C@H](C)NC(=O)[C@H](CC(N)=O)NC(=O)[C@@H](NC(=O)[C@H](C)NC(=O)[C@H](CCCCN)NC(=O)[C@H](CO)NC(=O)[C@H](CCC(=O)O)NC(=O)[C@@H]1CCCN1C(=O)[C@@H](N)Cc1ccccc1)[C@@H](C)O)[C@@H](C)O)C(=O)N1CCC[C@H]1C(=O)N[C@@H](CCC(=O)O)C(=O)N[C@@H](CCC(=O)O)C(=O)N[C@@H](Cc1ccc(O)cc1)C(=O)N[C@@H](CC(C)C)C(=O)N[C@@H](CCC(N)=O)C(=O)O [HLP]
- aPTT (second) ([1]; HLP 3.2 mg/kg/h [HLP(3.2)], 5 minutes after start of infusion): 19.80 ± 1.65++xx second
- aPTT (second) [1, 8]: 20.80 ± 3.24++xx second
- aPTT / coagulation activity during treatment versus control or basal levels ([1]; rats, i.v. infusion): close to that infused with saline; also recorded: did not cause haemorrhage, the elongation of aPTT; also recorded: not significantly different from vehicle controls; also recorded: did not significantly differ; also recorded: did not prolong aPTT or bleeding time; also recorded: did not significantly alter coagulation activity
- toxic effect in rats ([3]; previous experiments): does not cause evident toxic effect
- alanine transaminase versus control group [3, 10]: No significant difference
- blood urea nitrogen versus control group [3, 10]: No significant difference
- liver and kidney functions [3, 11]: No significant change
- haemorrhage / death from haemorrhage during infusion ([3]; rats, heparin 50 U/kg/hours, HLP 1.6-3.2 mg/kg/hours): did not cause haemorrhage
- antigenicity / induction of detectable antibodies in rabbits [4]: weak antigen
- aPTT in rabbits versus saline controls (aPTT in rabbits): did not significantly change; also recorded: not significantly prolonged
- HLP treated rabbits that suffered from bleeding complications [5]: None
- Ki on the enzymatic activity of thrombin, compared with hirulog-1 (α-thrombin): two orders of magnitude greater; also recorded: two orders of magnitude higher
- tail bleeding time 6 months after treatment versus controls [2, 11]: No significant change; also recorded: No significant difference
- tail bleeding time during treatment versus control or basal levels ([2]; rats): did not cause haemorrhage, the elongation of aPTT or bleeding time; also recorded: not significantly different from vehicle controls; also recorded: did not prolong aPTT or bleeding time
- Bleeding time (min) ([2]; tail, HLP 3.2 mg/kg/h [HLP(3.2)], 10 minutes after initiation of infusion, mean±SD, n=4): 16.50 ± 1.58+x min
- Bleeding time (min) [2, 9]: 16.37 ± 1.55+x min

Molecule: α-thrombin
- thrombin-induced 3H-thymidine incorporation in baboon aortic SMC [6]: Treatment with 20 µM HLP significantly reduced thrombin-induced increase in 3H-thymidine incorporation in SMC (p<0.05) compared to cells treated with thrombin only

Molecule: hirudin
- frequency of major bleeding [7]: 6%-7%
- incidence of major bleeding complications at non-cranial sites [7]: 7%

- aPTT / coagulation activity during treatment versus control or basal levels ([1]; rat, in vivo, iv): greatly increased
Molecule: Heparin [reference compound]
